Results published in the NIST ThermoML archive (doi:10.1016/j.fluid.2019.05.001).
± gives the expanded uncertainty stated by the source.

Settings: Crystal; DTA

Q: Which Normal melting temperature does the source give for `CCOC(=O)CCC[N+]1(C)CCCC1.[Br-]` [1-(4-ethoxy-4-oxobutyl)-1-methylpyrrolidinium bromide] here?
A: 73.00 ± 1 °C
